Like-named read-outs stand apart in the source and are kept apart here.
Columns and labels:
[1] = test system: Doxorubicin treated human iPSC-derived cardiomyocytes; assay: iPSC-CM protection by myricetin analogs (Table 1); assay type: cell-based; conditions: for cardioprotection, in words: Table 1
TOPOIIα = target: T1, TOPOIIα (Homo sapiens, UniProt P11388); assay: kDNA decatenation assay, TOPOIIα; assay type: biochemical; conditions: for TOPOIIα inhibition, in words: decatenation assay;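 on all read-outs here: kDNA incubated with one unit of TOPOIIα at 37 °C for 30 min, decatenated product resolved on 1% agarose gel, inhibition from relative band intensity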
T1 construct: purchased Inspiralis

TOPOIIβ = target: T2, TOPOIIβ (Homo sapiens, UniProt Q02880); assay: kDNA decatenation assay, TOPOIIβ; assay type: biochemical; conditions: for TOPOIIβ inhibition, in words: decatenation assay;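 on all read-outs here: kinetoplast DNA incubated with one unit of TOPOIIβ at 37 °C for 30 min, decatenated product resolved on 1% agarose gel, inhibition scored from relative band intensity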
T2 construct: purchased Inspiralis

cardiomyocytes = assay: cytotoxicity of myricetin analogs to cardiomyocytes (Table 1, Toxicity)
[2] = read-out: iPSC-CM protection EC50
[3] = approximate, read-out: EC50 for cardioprotection
[4] = Homo sapiens, iPSC-CM, read-out: iPSC-CM protection EC50
[5] = Homo sapiens, iPSC-CM, read-out: iPSC-CM protection Max Effect (%)
[6] = Homo sapiens, iPSC-CM, initial screen at 10 μM or 100 μM, read-out: iPSC-CM protection Max Effect (%), class symbol
[7] = initial screen at 10 μM or 100 μM
[8] = Homo sapiens, iPSC-CM, read-out: iPSC-CM protection Max Effect (%), class symbol

T2 sequence (Q02880 whole entry): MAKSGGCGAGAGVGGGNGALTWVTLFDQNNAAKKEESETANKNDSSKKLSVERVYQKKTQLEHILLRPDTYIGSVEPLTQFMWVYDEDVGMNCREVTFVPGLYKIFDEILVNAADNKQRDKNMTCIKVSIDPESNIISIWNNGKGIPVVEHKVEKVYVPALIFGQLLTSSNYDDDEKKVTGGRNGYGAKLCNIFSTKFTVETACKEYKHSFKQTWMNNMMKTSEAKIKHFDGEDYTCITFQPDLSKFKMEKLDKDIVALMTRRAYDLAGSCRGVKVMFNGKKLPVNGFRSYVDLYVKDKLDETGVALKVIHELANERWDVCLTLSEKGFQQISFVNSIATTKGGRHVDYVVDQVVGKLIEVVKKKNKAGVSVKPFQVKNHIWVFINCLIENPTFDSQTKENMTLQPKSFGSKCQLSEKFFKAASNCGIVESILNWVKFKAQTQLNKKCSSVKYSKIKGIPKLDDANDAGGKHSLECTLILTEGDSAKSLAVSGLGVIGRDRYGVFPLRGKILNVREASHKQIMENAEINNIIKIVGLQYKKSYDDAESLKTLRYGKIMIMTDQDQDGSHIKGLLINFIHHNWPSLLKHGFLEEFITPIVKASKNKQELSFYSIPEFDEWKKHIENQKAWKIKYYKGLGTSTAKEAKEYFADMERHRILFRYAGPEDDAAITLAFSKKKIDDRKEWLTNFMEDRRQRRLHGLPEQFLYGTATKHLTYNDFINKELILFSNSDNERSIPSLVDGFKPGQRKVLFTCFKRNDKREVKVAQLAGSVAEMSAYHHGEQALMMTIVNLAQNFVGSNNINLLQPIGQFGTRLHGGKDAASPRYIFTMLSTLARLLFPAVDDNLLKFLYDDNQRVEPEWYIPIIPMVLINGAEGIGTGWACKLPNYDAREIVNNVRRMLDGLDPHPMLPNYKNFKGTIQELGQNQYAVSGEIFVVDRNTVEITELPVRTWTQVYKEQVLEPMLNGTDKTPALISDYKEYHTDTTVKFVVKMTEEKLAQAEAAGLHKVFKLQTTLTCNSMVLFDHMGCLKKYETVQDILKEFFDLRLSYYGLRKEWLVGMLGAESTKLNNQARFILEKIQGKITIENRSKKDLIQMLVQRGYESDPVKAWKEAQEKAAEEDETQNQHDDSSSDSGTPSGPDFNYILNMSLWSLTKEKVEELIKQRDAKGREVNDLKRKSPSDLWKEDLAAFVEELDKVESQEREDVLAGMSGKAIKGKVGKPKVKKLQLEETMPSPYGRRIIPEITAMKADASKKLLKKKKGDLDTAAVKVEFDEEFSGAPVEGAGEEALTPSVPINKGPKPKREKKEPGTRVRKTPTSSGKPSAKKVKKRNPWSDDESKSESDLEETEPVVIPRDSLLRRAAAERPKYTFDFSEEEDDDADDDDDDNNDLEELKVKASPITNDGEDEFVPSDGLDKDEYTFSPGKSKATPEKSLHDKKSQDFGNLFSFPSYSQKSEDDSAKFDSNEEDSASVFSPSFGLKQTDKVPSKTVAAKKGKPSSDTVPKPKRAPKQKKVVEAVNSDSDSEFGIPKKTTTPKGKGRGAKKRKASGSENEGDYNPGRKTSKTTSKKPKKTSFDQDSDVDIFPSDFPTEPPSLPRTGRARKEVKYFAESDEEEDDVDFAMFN
T1 sequence (P11388 whole entry): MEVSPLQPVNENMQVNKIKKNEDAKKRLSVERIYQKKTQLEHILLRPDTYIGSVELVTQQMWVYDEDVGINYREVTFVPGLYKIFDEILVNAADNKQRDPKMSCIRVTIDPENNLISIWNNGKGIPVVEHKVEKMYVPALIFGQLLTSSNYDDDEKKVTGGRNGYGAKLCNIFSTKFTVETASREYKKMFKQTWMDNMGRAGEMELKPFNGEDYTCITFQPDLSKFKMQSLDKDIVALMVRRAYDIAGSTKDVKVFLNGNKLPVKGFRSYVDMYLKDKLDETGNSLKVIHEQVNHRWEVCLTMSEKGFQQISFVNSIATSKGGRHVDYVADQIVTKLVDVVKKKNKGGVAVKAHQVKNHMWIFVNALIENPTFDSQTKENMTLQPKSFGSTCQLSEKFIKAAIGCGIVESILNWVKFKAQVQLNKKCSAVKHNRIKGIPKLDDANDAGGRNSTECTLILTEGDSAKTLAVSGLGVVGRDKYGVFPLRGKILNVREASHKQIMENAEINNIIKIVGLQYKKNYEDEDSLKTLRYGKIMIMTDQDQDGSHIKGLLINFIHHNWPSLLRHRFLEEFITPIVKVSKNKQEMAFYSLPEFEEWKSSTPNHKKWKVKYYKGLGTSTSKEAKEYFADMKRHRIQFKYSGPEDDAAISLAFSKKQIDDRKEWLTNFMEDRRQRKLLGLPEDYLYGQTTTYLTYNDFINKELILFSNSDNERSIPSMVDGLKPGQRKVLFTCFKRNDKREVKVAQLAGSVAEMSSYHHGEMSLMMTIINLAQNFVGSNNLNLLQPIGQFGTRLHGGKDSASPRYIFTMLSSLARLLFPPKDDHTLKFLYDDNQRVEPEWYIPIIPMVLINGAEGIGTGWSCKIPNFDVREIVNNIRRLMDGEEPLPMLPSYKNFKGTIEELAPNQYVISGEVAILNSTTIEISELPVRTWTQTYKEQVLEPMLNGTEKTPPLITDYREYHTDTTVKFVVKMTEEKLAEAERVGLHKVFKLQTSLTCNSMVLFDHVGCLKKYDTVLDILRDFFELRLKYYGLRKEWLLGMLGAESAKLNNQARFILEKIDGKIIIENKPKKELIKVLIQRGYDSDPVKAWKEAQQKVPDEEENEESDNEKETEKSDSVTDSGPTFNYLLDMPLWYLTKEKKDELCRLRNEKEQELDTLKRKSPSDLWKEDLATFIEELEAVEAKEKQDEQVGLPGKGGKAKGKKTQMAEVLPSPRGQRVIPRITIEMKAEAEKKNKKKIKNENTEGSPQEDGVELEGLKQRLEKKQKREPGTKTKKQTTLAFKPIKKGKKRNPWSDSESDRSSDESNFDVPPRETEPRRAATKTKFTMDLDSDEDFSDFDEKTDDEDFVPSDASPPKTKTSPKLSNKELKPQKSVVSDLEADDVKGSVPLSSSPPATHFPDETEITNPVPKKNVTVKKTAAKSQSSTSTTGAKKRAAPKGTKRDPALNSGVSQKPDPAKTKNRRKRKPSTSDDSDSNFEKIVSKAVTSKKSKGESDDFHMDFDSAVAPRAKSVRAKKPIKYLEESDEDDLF

Row | TOPIIα Inhibition (TOPOIIα) | TOPIIβ Inhibition (TOPOIIβ) | Structure (SMILES) | Rescue [1] | Emax [1, 6] | other results
1 | − | − | O=C1c2ccc(O)cc2OC(c2cc(O)c(O)c(O)c2)C1O (stereo in doubt) [Compound 30, dihydrorobinetin] |  |  | iPSC-CM protection Max Effect (%) [1]: 53%; EC50 [1, 2]: 14 µM; TOPOIIα inhibition, in words (TOPOIIα): no inhibitory activity; TOPOIIβ inhibition, in words (TOPOIIβ): no inhibitory activity
2 |  |  | O=c1c(O)c(-c2ccccc2)oc2cc(O)cc(O)c12 [3,5,7-trihydroxyflavone] |  |  | cytotoxicity, in words (cardiomyocytes; at 100 μM where stated, Table 1): generalized cytotoxicity; cardioprotection, in words [1]: neither cardioprotection nor TOPOII inhibition; TOPOIIα inhibition, in words (TOPOIIα): neither cardioprotection nor TOPOII inhibition; TOPOIIβ inhibition, in words (TOPOIIβ): neither cardioprotection nor TOPOII inhibition
3 |  |  | COc1ccc2c(=O)c(OC)c(-c3cc(OC)c(OC)c(OC)c3)oc2c1 [3,7,3′,4′,5′-O-pentamethylrobinetin] |  |  | cardioprotection, in words [1]: entirely failed to display cardioprotection or TOPOII inhibition; TOPOIIα inhibition, in words (TOPOIIα): entirely failed to display cardioprotection or TOPOII inhibition; TOPOIIβ inhibition, in words (TOPOIIβ): entirely failed to display cardioprotection or TOPOII inhibition
4 |  |  | COc1cc(-c2oc3cc(O)cc(O)c3c(=O)c2O)cc(OC)c1OC [3′,4′,5′-O-trimethylmyricetin] |  |  | cardioprotection, in words [1]: entirely failed to display cardioprotection or TOPOII inhibition; TOPOIIα inhibition, in words (TOPOIIα): entirely failed to display cardioprotection or TOPOII inhibition; TOPOIIβ inhibition, in words (TOPOIIβ): entirely failed to display cardioprotection or TOPOII inhibition
5 |  |  | O=c1cc(-c2cc(O)c(O)c(O)c2)oc2ccccc12 [3′,4′,5′-trihydroxyflavone] |  |  | EC50 ([1]; Homo sapiens, Cardiomyocyte, read-out: potency for cardioprotection): ≥ 30 µM
6 |  |  | COc1cc(-c2oc3cc(O)cc(O)c3c(=O)c2O)cc(OC)c1O [3′,5′-O-dimethylmyricetin] |  |  | cardioprotection, in words [1]: neither cardioprotection nor TOPOIIα and TOPOIIβ inhibition; TOPOIIα inhibition, in words (TOPOIIα): neither cardioprotection nor TOPOIIα and TOPOIIβ inhibition; TOPOIIβ inhibition, in words (TOPOIIβ): neither cardioprotection nor TOPOIIα and TOPOIIβ inhibition
7 |  |  | COc1cc(-c2oc3cc(O)cc(O)c3c(=O)c2O)cc(O)c1O [3′-O-methylmyricetin] |  |  | cardioprotection, in words [1]: conferred cardioprotection; EC50 [1, 3]: ~59 µM; TOPOIIα inhibition, in words (TOPOIIα): failed to inhibit; TOPOIIβ inhibition, in words (TOPOIIβ): failed to inhibit
8 |  |  | COc1c(O)cc(-c2oc3cc(O)cc(O)c3c(=O)c2O)cc1O [4′-O-methylmyricetin] |  |  | cardioprotection, in words [1]: conferred cardioprotection; EC50 [1, 3]: ~48.7 µM; TOPOIIα inhibition, in words (TOPOIIα): without TOPOII inhibition; TOPOIIβ inhibition, in words (TOPOIIβ): without TOPOII inhibition
9 |  |  | COc1ccc2c(=O)c(O)c(-c3cc(OC)c(OC)c(OC)c3)oc2c1 [7,3′,4′,5′-O-tetramethylrobinetin] |  |  | cardioprotection, in words [1]: entirely failed to display cardioprotection or TOPOII inhibition; TOPOIIα inhibition, in words (TOPOIIα): entirely failed to display cardioprotection or TOPOII inhibition; TOPOIIβ inhibition, in words (TOPOIIβ): entirely failed to display cardioprotection or TOPOII inhibition
10 |  |  | O=c1c(O)c(-c2ccc(O)c(O)c2)oc2cc(O)ccc12 [Compound 5, 3,7,3′,4′-tetrahydroxyflavone] |  |  | EC50 [1, 4]: 16.3 µM; Emax [1, 5]: 36%
11 | − | − | O=c1cc(-c2ccc(O)c(O)c2)oc2cc(O)cc(O)c12 [Compound 9, 5,7,3′,4′-tetrahydroxyflavone] |  |  | EC50 [1, 4]: 9.67 µM; Emax [1, 5]: 62%
12 | − | − | O=c1cc(-c2ccc(O)c(O)c2)oc2cc(O)ccc12 [Compound 11, 7,3′,4′-trihydroxyflavone] | + |  | EC50 [1, 4]: 6.25 µM; Emax [1, 5]: 24%
13 | − | − | O=c1c(O)c(-c2ccc(O)c(O)c2)oc2ccccc12 [Compound 12, 3,3′,4′-trihydroxyflavone] | + |  | EC50 [1, 4]: 6.43 µM; Emax [1, 5]: 16%
14 |  |  | O=c1cc(-c2ccc(O)cc2)oc2cc(O)cc(O)c12 [Compound 13, 5,7,4′,-trihydroxyflavone] | − | < 30% | 
15 |  |  | O=c1cc(-c2ccc(O)c(O)c2)oc2ccccc12 [Compound 14, 3′,4′-dihydroxyflavone] | − | < 30% | 
16 |  |  | O=c1cc(-c2ccc(O)cc2)oc2cc(O)ccc12 [Compound 15, 7,4′-dihydroxyflavone] | − | < 30% | 
17 |  |  | O=c1c(O)c(-c2ccc(O)cc2)oc2ccccc12 [Compound 16, 3,4′-dihydroxyflavone] | − | < 30% | 
18 |  |  | O=c1cc(-c2ccc(O)cc2)oc2ccccc12 [Compound 17, 4′-hrydroxyflavone] | − |  | iPSC-CM protection Max Effect (%), class symbol [1, 7]: † (Compounds failed to exhibit >30% protection Max Effect at 10 μM or 100 μM on initial screen.)
19 |  |  | O=c1c(O)c(-c2cccc(O)c2)oc2cc(O)ccc12 [Compound 18, 3,7,3′-trihydroxyflavone] | − | < 30% | 
20 |  |  | O=c1c(O)c(-c2ccccc2)oc2cc(O)cc(O)c12 [Compound 19, 3,5,7-trihydroxyflavone] | − | < 30% | 

Row | TOPIIα Inhibition (TOPOIIα) | TOPIIβ Inhibition (TOPOIIβ) | Structure (SMILES) | Rescue [1] | Emax [1, 6] | other results
21 |  |  | O=c1c(O)c(-c2ccccc2)oc2cc(O)ccc12 [Compound 20, 3,7-dihydroxyflavone] | − |  | 
22 |  |  | O=c1cc(-c2cccc(O)c2)oc2cc(O)ccc12 [Compound 21, 7,3′-dihydroxyflavone] | − | < 30% | 
23 |  |  | O=c1c(O)c(-c2cccc(O)c2)oc2ccccc12 [Compound 22, 3,3′-dihydroxyflavone] | − | < 30% | 
24 |  |  | O=c1cc(-c2ccccc2)oc2cc(O)cc(O)c12 [Compound 23, 5,7-dihydroxyflavone] | − | < 30% | 
25 |  |  | O=c1cc(-c2ccccc2)oc2cc(O)ccc12 [Compound 24, 7-hydroxyflavone] | − |  | Emax [1, 8]: < 30%
26 |  |  | O=c1c(O)c(-c2ccccc2)oc2ccccc12 [Compound 25, 3-hydroxyflavone] | − | < 30% | 
27 |  |  | O=c1cc(-c2cc(O)cc(O)c2)oc2ccccc12 [Compound 26, 3′,5′-dihydroxyflavone] | − |  | Emax [1, 8]: < 30%
28 |  |  | O=c1cc(-c2cccc(O)c2)oc2ccccc12 [Compound 27, 3′-hydroxyflavone] | − | < 30% | 
29 |  |  | O=c1cc(-c2ccccc2)oc2ccccc12 [Compound 28, flavone] | − | < 30% | 
30 |  |  | O=c1ccoc2ccccc12 [Compound 29, chromone] | − | < 30% | Toxicity (cardiomyocytes; * = cytotoxicity at 100 μM): −
31 | − | − | COc1cc(-c2oc3cc(O)cc(O)c3c(=O)c2O)cc(O)c1O [Compound 31, 3′-O-methylmyricetin] | + |  | iPSC-CM protection Max Effect (%) [1]: 76%; EC50 [1, 2]: 58.7 µM
32 | − | − | COc1c(O)cc(-c2oc3cc(O)cc(O)c3c(=O)c2O)cc1O [Compound 32, 4′-O-methylmyricetin] | + |  | iPSC-CM protection Max Effect (%) [1]: 68%; EC50 [1, 2]: 48.6 µM
33 | − | − | COc1cc(-c2oc3cc(O)cc(O)c3c(=O)c2O)cc(OC)c1O [Compound 33, 3′,5′-O-dimethylmyricetin] | − |  | iPSC-CM protection Max Effect (%), class symbol [1, 7]: † (Compounds failed to exhibit >30% protection Max Effect at 10 μM or 100 μM on initial screen.)
34 | − | − | COc1cc(-c2oc3cc(O)cc(O)c3c(=O)c2O)cc(OC)c1OC [Compound 34, 3′,4′,5′-O-trimethylmyricetin] | − |  | iPSC-CM protection Max Effect (%), class symbol [1, 7]: † (Compounds failed to exhibit >30% protection Max Effect at 10 μM or 100 μM on initial screen.)
35 | − | − | COc1cc(-c2oc3cc(O)ccc3c(=O)c2O)cc(OC)c1OC [Compound 35, 3',4',5'-O-trimethylrobinetin] | − |  | cardioprotection, in words [1]: entirely failed to display cardioprotection or TOPOII inhibition; iPSC-CM protection Max Effect (%), class symbol [1, 7]: † (Compounds failed to exhibit >30% protection Max Effect at 10 μM or 100 μM on initial screen.); TOPOIIα inhibition, in words (TOPOIIα): entirely failed to display cardioprotection or TOPOII inhibition; TOPOIIβ inhibition, in words (TOPOIIβ): entirely failed to display cardioprotection or TOPOII inhibition
36 | − | − | COc1ccc2c(=O)c(O)c(-c3cc(OC)c(OC)c(OC)c3)oc2c1 [Compound 36, 7,3′,4′,5′-O-tetramethylrobinetin] | − |  | iPSC-CM protection Max Effect (%), class symbol [1, 7]: † (Compounds failed to exhibit >30% protection Max Effect at 10 μM or 100 μM on initial screen.)
37 | − | − | COc1ccc2c(=O)c(OC)c(-c3cc(OC)c(OC)c(OC)c3)oc2c1 [Compound 37, 3,7,3′,4′,5′-O-pentamethylrobinetin] | − |  | iPSC-CM protection Max Effect (%), class symbol [1, 7]: † (Compounds failed to exhibit >30% protection Max Effect at 10 μM or 100 μM on initial screen.)
38 | − | − | O=c1ccoc2cc(O)ccc12 [Compound 38, 7-hydroxy-4-chromone] | − | < 30% | 
39 |  |  | O=c1ccoc2ccccc12 [chromone] |  |  | cardioprotection, in words [1]: no positive effect; TOPOIIα inhibition, in words (TOPOIIα): Nor did either compound confer TOPOIIβ or a inhibition; TOPOIIβ inhibition, in words (TOPOIIβ): Nor did either compound confer TOPOIIβ or a inhibition
